From patent publication US20130302278A1, “USE OF TLR AGONISTS AND/OR TYPE 1 INTERFERONS TO ALLEVIATE TOXICITY OF TNF-R AGONIST THERAPEUTIC REGIMENS” (Immurx Inc., priority 2007, published 2013)

How the values were obtained:
B16.F10 melanoma cells = test: Therapeutic vaccination against metastatic B16.F10 melanoma (lung metastases, survival)
Description: Therein, C57BL/6 mice were challenged with 10^5 metastatic B16.F10 melanoma cells intravenously. Four days later, mice were vaccinated with 100 μg of the tumor-associated antigen V, 100 μg CD40 FGK45, and 100 μg S-27609 in combinations as indicated. After 24 days, mice were killed, lungs were removed, and metastatic surface tumor nodules were enumerated with the aid of a dissecting microscope.
Mice were injected with 10^5 B16.F10 melanoma tumor cells intravenously to establish lung metastases. Four days later, naive or tumor-bearing mice were intravenously vaccinated with 100 μg V peptide, 100 μg anti-CD40, and 100 μg of the TLR7 agonist S-27609 in various combinations as indicated. Lungs were harvested approximately 20 days later, and metastases were enumerated with the aid of a dissection microscope. Alternatively, mice were monitored for survival over the next 90 days.
C57BL/6 mice were challenged with 10^5 metastatic B16.F10 melanoma cells intravenously. Four days later, mice were vaccinated with 100 μg of the tumor-associated antigen V, 100 μg CD40 FGK45, and 100 μg S-27609 in combinations as indicated. After 24 days, mice were killed, lungs were removed, and metastatic surface tumor nodules were enumerated with the aid of a dissecting microscope.

[1] = test system: TRP2-specific CD8^+ T cells; test: Degranulation (CD107a) and expansion of CD8+ T cells in peripheral blood 7 days after immunization; assay type: in vivo, C57BL/6 mice; details: 7 days after i.v. immunization, 100 μg each, groups given with V peptide
Description: Seven days later, mice were bled and cells were restimulated in vitro with TRP2(180-188) to assess the ability to produce IFN and translocate CD107a as described in “Methods.” Lymphocytes were identified by forward and side scatter and subsequently gated on all CD8^+ events. (A) Representative dot plots from vaccinated mice. The numbers in the upper right corners indicate the frequency of CD8^+ T cells that are positive for IFN and CD44 (top row) or IFN and CD107a (bottom row). (B) Percentage of peripheral blood lymphocytes expressing the CD8 antigen. P.001 by one-tailed ANOVA (C) Quantification of the percentages of CD8^+ cells that degranulated in response to peptide restimulation. In all cases, data presented are representative of at least 3 independent experiments. […] P.001 by one-tailed ANOVA.
Cells from lung, spleen, or peripheral blood (peripheral blood lymphocytes [PBLs]) were incubated with 1 μg/mL Ova(257-264) or TRP2(180-188) peptide plus 10 U/mL IL-2 and 3 μg/mL brefeldin A in complete medium at 37° C. for 5 to 18 hours. […] The percentage of IFN^+ cells was calculated by subtracting the background observed with the irrelevant peptide control.

memory CD8^+ T cells = test: Memory CD8+ T-cell function (intracellular cytokine staining) 60+ days after vaccination; assay type: in vivo, mice; details: spleen and lung
Description: In the experiments depicted in FIG. 2, mice were immunized with 100 μg each of V peptide, CD40, and S-27609 in combinations as indicated. Memory CD8S functionality was assessed 65 days later. (A) Representative dot plots of IFN secretion by memory CD8^+ T cells isolated from spleens and lungs of vaccinated mice. Dot plots are gated on live CD8^+ cells, and numbers indicate the percentage of cells positive for both IFN and CD44. (B) Memory CD8^+ T-cell cytolytic activity was assessed by performing an in vivo cytotoxicity assay. Numbers reflect the percentage of antigen-specific lysis. (C,D) Quantification of relative and absolute numbers of memory CD8 cells expressing IFN in the spleen (C) and lung (D). Absolute numbers of positive cells were determined by multiplying the relative percentage of each cell population by the total number of cells isolated from each tissue. (E) Quantification of the in vivo cytotoxicity assay presented in panel B. P.001 by one-tailed ANOVA. […] Cells from panel F were analyzed for the ability to produce TNF and IL-2. […]
Mice were immunized with 100 μg each of V peptide, CD40, and S-27609 in combinations as indicated. Memory CD8 functionality was assessed 65 days later. […] (B) Memory CD8^+ T-cell cytolytic activity was assessed by performing an in vivo cytotoxicity assay. […] (E) Quantification of the in vivo cytotoxicity assay presented in panel B. P.001 by one-tailed ANOVA. […]

[2] = Serum transaminase (ALT, AST) analysis of hepatocellular injury; assay type: in vivo, mice; details: 100 μg each i.v., 24 to 72 hours
Description: (§1) FIG. 5 This figure contains experiments that reveal that the hepatic toxicity associated with CD40 monotherapy is reversed with TLR7 agonism. FIG. 5(A, B) contain kinetic analysis of serum transaminases. Mice were treated with PBS, 100 μg CD40, 100 μg TLR7*, or both intravenously. Serum was isolated at various time points afterward, and serum levels of alanine transaminase (A) or aspartate transaminase (B) were measured as described. Data are representative of 3 independent experiments, with n=3 to 8 mice per group, per time point. (C-F) Histologic analysis of livers treated with PBS (C), […] CD40 (D), 100 μg TLR7* (E), or 100 μg CD40 and 100 μg TLR7*(F) for 48 hours. (G) Semiquantitative assessment of histopathologic changes in livers from mice treated as above for 48 hours. […]
(§2) Hepatocellular injury was biochemically assessed by measuring serum liver enzyme activity. […] Serum was harvested 24 to 72 hours later and levels of alanine aminotransferase (ALT) and aspartate aminotransferase (AST) were determined by standard clinical assays at the National Jewish Medical Center Core Lab (Denver, Colo.). For histologic analysis, livers from mice treated as above were fixed in buffered formalin, embedded in paraffin, sectioned, and stained with hematoxylin and eosin (H&E) prior to being coded and scored on a 0 to 4 scale in a blinded fashion. […]

[3] = Macroscopic and histologic analysis of livers (H&E, 0 to 4 score); assay type: in vivo, mice
Description: as §1, §2

Compound: SIYDFFVWL [tumor antigen]
- control of tumor progression (number of lung tumor nodules) (B16.F10 melanoma cells; 10^5 B16.F10 i.v., treatment 4 days later, lungs at 24 days): ineffective in controlling tumor progression
- mean survival time (B16.F10 melanoma cells; all mice succumbed to lung failure): 29 days

Compound: Cc1nc2c(N)nc3ccccc3c2n1CC(C)(C)O [TLR7*]
- CD8^+ cells expressing CD107a (degranulation after peptide restimulation) [1]: approximately 2%
- persisting antigen-specific CD8^+ effector population (memory CD8^+ T cells): failed to induce a significant pool
- plasma levels of ALT and AST [2]: no effect on enzyme levels
- histologic analysis of liver ([3]; 48 hours after 100 μg each i.v.): minor inflammation without any observable coagulative necrosis
- semiquantitative score of histologic liver damage ([3]; 48 hours, P=0.026, TLR7* added to CD40): significantly reduces liver toxicity associated with CD40 monotherapy
